Assay results as given in patent US20250026762A1, “FUSED PYRAZOLE UREA ANALOGS AS GLUCOSYLCERAMIDE SYNTHASE INHIBITORS” (Merck Sharp & Dohme LLC, priority 2021, published 2025).

The compounds below were run against glucosylceramide synthase (GCS) enzyme in Golgi preparations from human A375 malignant melanoma skin cells (Homo sapiens (Human), UniProt Q16739) (assay: UDP-Glo glucosylceramide synthase biochemical assay). Settings: 1.5 μg crude golgi preparation; C6 ceramide and UDP-glucose at 2×Km; 20 h incubation at room temperature; luminescence.
Chain of glucosylceramide synthase (GCS) enzyme in Golgi preparations from human A375 malignant melanoma skin cells (Q16739 whole entry): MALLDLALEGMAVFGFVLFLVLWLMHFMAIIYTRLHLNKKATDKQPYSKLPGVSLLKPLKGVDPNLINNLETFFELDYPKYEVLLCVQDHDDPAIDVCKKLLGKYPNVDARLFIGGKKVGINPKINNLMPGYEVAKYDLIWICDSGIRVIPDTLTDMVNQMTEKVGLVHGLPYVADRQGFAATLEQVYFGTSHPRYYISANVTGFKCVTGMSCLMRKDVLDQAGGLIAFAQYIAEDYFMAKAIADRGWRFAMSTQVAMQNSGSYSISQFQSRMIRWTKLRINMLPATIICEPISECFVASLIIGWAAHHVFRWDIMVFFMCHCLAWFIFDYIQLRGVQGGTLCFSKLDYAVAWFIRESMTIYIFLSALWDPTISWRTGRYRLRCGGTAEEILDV
From the text: UDP-Glo™ Glucosylceramide Synthase Biochemical Assay
A UDP-Glo™ glucosylceramide synthase biochemical assay was utilized to evaluate the effect of test compounds on the activity of endogenous levels of GCS enzyme contained within Golgi preparations isolated from human A375 malignant melanoma skin cells. The UDP-Glo™ glucosylceramide synthase assay uses UDP-Glucose as a nucleotide-glycosyl donor and ceramide as substrate acceptor molecules. In the reaction, glucosylceramide synthase (GCS) transfers glucose from UDP-Glucose to ceramide. Glucosylceramide and UDP are released as products.
Using Promega's UDP-Glo™ Glycosyltransferase assay kit (Promega Corporation, Madison, WI, USA (Promega)), GCS activity was indirectly measured by detecting the amount of UDP produced. An aliquot of GCS enzyme (1.5 μg crude golgi preparation, total protein) and titrated test compound were aliquoted to each well and incubated for 30 minutes at room temperature. Substrate mixture was prepared by mixing C6 ceramide (Avanti Polar Lipids, Alabaster, AL USA (Avanti)) (micelles prepared at 0.6 mM in 0.6 mM DOPC) and UDP-glucose (20 μM; Promega), at concentrations equivalent to 2×Km, in assay buffer (25 mM HEPES (pH 7.5), 50 mM KCl, 5 mM MgCl2). An equivalent volume of substrate mixture was then added to each well. Following a 20 h incubation at room temperature to allow for GCS turnover of substrate, an equal volume of UDP detection reagent (Promega) was added to each well and incubated for an additional 75 minutes at room temperature to simultaneously convert the accumulated UDP product into ATP and generate light in a luciferase reaction. The generated light was detected using a luminometer. […] luminescence values (RLUs) were normalized to mean “min” and “max” effects, as determined on each plate. “Min” was defined as the mean of the values of the wells treated with vehicle (DMSO) and which represent 0% inhibition; “max” was defined as the mean of the values of the wells treated with a reference inhibitor and which represent the 100% effect. Values for % Emax and EC50 were determined by best-fitting the normalized data to a curve in Activity Base along a four-parameter logistic nonlinear regression (4PL) model (based on the Levenberg-Marquardt algorithm and defined by the equation below): […]
where: n is 4PMin (bottom of the curve); m is 4PMax (top of the curve); i is IP (inflection point of curve); andp is slope. See Levenberg, K., “A Method for the Solution of Certain Problems in Least Squares”, Quart. Appl. Math. 2, (1944), pp 164-168 and Marquardt, D., “An Algorithm for Least Squares Estimation on Nonlinear Parameters”, SIAM J. Appl. Math. 11, (1963) pp 431-441.

| SMILES | EC50 |
| --- | --- |
| O=C(N1CCN2CCC1CC2)n1nc(-n2cc(C(F)(F)F)cn2)c2c1CCOC2 [Compound 59, (1,4-diazabicyclo[3.2.2]nonan-4-yl)(3-(4-(trifluoromethyl)-1H-pyrazol-1-yl)-6,7-dihydropyrano[4,3-c]pyrazol-1(4H)-yl)methanone] | 3.1 nM |
| O=C(N1CCN2CCC1CC2)n1nc(-n2cc(C(F)(F)F)cn2)c2c1[C@H]1C[C@H]1C2 [Compound 61, (1,4-diazabicyclo[3.2.2]nonan-4-yl)((4aS,5aS)-3-(4-(trifluoromethyl)-1H-pyrazol-1-yl)-4,4a,5,5a-tetrahydro-1H-cyclopropa[4,5]cyclopenta[1,2-c]pyrazol-1-yl)methanone] | 0.1 nM |
| CC1(C)CCCN(c2nn(C(=O)N3CCN4CCC3CC4)c3c2CCC3)C1 [Compound 24, (1,4-diazabicyclo[3.2.2]nonan-4-yl)(3-(3,3-dimethylpiperidin-1-yl)-5,6-dihydrocyclopenta[c]pyrazol-1(4H)-yl)methanone] | 7.8 nM |
| O=C(N1CCN2CCC1CC2)n1nc(-n2cc(Cl)cn2)c2c1COCC2 [Compound 55, (1,4-diazabicyclo[3.2.2]nonan-4-yl)(3-(4-chloro-1H-pyrazol-1-yl)-4,7-dihydropyrano[3,4-c]pyrazol-1(5H)-yl)methanone] | 10.4 nM |
| O=C(N1CCN2CCC1CC2)n1nc(-c2cc(Cl)ccc2F)c2c1COCC2 [Compound 29, (1,4-diazabicyclo[3.2.2]nonan-4-yl)(3-(5-chloro-2-fluorophenyl)-4,7-dihydropyrano[3,4-c]pyrazol-1(5H)-yl)methanone] | 3.8 nM |
| COc1nccc(-c2nn(C(=O)N3CCN4CCC3CC4)c3c2CCC3)c1Cl [Compound 40, [3-(3-chloro-2-methoxy-4-pyridyl)-5,6-dihydro-4H-cyclopenta[c]pyrazol-1-yl]-(1,4-diazabicyclo[3.2.2]nonan-4-yl)methanone] | 1.2 nM |
| CC1CCc2c(-c3ccc(F)cc3)nn(C(=O)N3CCN4CCC3CC4)c2O1 (stereo not drawn) [Compound 63, R and S-(1,4-diazabicyclo-[3.2.2]nonan-4-yl)(3-(4-fluorophenyl)-6-methyl-5,6-dihydropyrano[2,3-c]pyrazol-1(4H)-yl)methanone] | 17.5 nM |
| COc1nccc(-c2nn(C(=O)N3CCN4CCC3CC4)c3c2CCOC3)c1Cl [Compound 34, (1,4-diazabicyclo[3.2.2]nonan-4-yl)(3-(3-chloro-2-methoxypyridin-4-yl)-4,7-dihydropyrano[3,4-c]pyrazol-1(5H)-yl)methanone] | 15.3 nM |
| O=C(N1CCN2CCC1CC2)n1nc(-c2ccc(F)c(F)c2F)c2c1CCOC2 [Compound 42, (1,4-diazabicyclo[3.2.2]nonan-4-yl)(3-(2,3,4-trifluorophenyl)-6,7-dihydropyrano[4,3-c]pyrazol-1(4H)-yl)methanone] | 0.9 nM |
| O=C(N1CCN2CCC1CC2)n1nc(-c2ccc(Cl)cn2)c2c1COCC2 [Compound 23, (1,4-diazabicyclo[3.2.2]nonan-4-yl)(3-(5-chloropyridin-2-yl)-4,7-dihydropyrano[3,4-c]pyrazol-1(5H)-yl)methanone] | 3.7 nM |
| O=C(N1CCN2CCC1CC2)n1nc(-n2cc(C(F)(F)F)cn2)c2c1COCC2 [Compound 53, (1,4-diazabicyclo[3.2.2]nonan-4-yl)(3-(4-(trifluoromethyl)-1H-pyrazol-1-yl)-4,7-dihydropyrano[3,4-c]pyrazol-1(5H)-yl)methanone] | 4.1 nM |
| CC1(C)Cc2c(c(-c3ccc(F)cc3)nn2C(=O)N2CCN3CCC2CC3)CO1 [Compound 18, (1,4-diazabicyclo[3.2.2]nonan-4-yl)(3-(4-fluorophenyl)-6,6-dimethyl-6,7-dihydropyrano[4,3-c]pyrazol-1(4H)-yl)methanone] | 9.8 nM |
| O=C(N1CCN2CCC1CC2)n1nc(-c2ccc(F)cc2)c2c1C1CC1CC2 (single isomer, unassigned) [Compound 10] | 0.3 nM |
| O=C(N1CCN2CCC1CC2)n1nc(-c2cc(F)c(F)cc2F)c2c1CCOC2 [Compound 45, (1,4-diazabicyclo[3.2.2]nonan-4-yl)(3-(2,4,5-trifluorophenyl)-6,7-dihydropyrano[4,3-c]pyrazol-1(4H)-yl)methanone] | 2.3 nM |
